According to US8557574B2, “Fungal growth inhibitor” (Seikagaku Corporation, priority 2006, dated 2013):

What was measured:
COS-7 = experiment: MTT assay of hyaluronidase-treated cells; assay type: cell-based, Cercopithecus aetiopus; conditions: COS-7 cells, hyaluronidase 10, 20 or 100 units/mL; data not shown
Description: (§1) Assay of living cells was carried out in the same manner as in the reported reference (Infect. Immun., 69, p. 5925-5930 (2001)).
(§2) In briefly describing, firstly, the COS-7 and KB cells were plated on a 96 well plate at a density of 5×10^5 cells/mL. Hyaluronidase (manufactured by Sigma) haying a respective concentration of 10, 20 or 100 units/mL was added to it, and Candida albicans was cultured for 20 hours. MTT solution (20 μg/mL) was added to each well at the final stage of the culturing, and the contents of the plate were incubated for 4 hours. By adding 100 μL of acidic isopropanol (isopropanol containing 0.04M HCl) to this, the red formazan was eluted and thoroughly mixed. Formazan concentration in the solution of each well was measured by a plate reader (manufactured by Dynex) using 570 nm as the testing wavelength and 620 nm as the reference wave length, respectively.

KB cells = experiment: MTT assay of hyaluronidase-treated cells; assay type: cell-based, human; conditions: hyaluronidase 10, 20 or 100 units/mL, data not shown
Description: as §1, §2

Candida albicans [1] = experiment: Candida growth inhibition by cells after removal of cell surface HA with hyaluronidase (quantitative plate count); assay type: cell-based; conditions: various concentrations of hyaluronidase, E:T 80:1, FIG. 2
Description: The cells were treated using hyaluronidase (manufactured by Sigma) (50 units/10^6 cells) at 37° C. for 2 hours (J. Oral Sci., 45, p. 85-91 (2003)). The cells after the treatment were washed twice with phosphate buffered saline (pH 7.2, to be referred to as “PBS” hereinafter) and re-suspended in DMEM.
In order to monitor growth inhibition of Candida albicans, a quantitative plate count method was used (J. Infect. Dis., 182, p. 1479-1485 (2000), Infect. Immun., 69, p. 7091-7099 (2001), Med. Mycol., 37, p. 251-259 (1999)). In briefly describing, a co-culture mixture of the same effector and target was incubated at 37° C. for 9 hours under a condition of 5% CO2. […] It was incubated at 30° C. for 48 hours, and the colony forming unit (to be referred to as “CFU” hereinafter) was counted. Hereinafter, counted value of CFU of the sample incubated in the presence of HA is referred to as “test CFU”.
As a control, respective Candida species was incubated in the absence of HA, and this was subjected to the plating in the same manner. Hereinafter, counted value of CFU on the sample is referred to as “control CFU”.
Growth inhibition ratio (%) was calculated from the value of “test CFU” and the value of “control CFU” of its corresponding Candida species based on the following formula. […]

[2] = tested on: Candida glabrata ATCC 2001, Candida krusei ATCC 6258 and Candida tropicalis ATCC 4563; experiment: Activity of inhibiting growth for various Candida species by HA (absorbance at 660 nm); assay type: cell-based; conditions: other Candida species 5×10^5 cells/mL, 9 hours with HA of 2,000 kDa; FIG. 5
Description: Additionally, other Candida species (Candida glabrata ATCC 2001, Candida krusei ATCC 6258 and Candida tropicalis ATCC 4563) were prepared by allowing them to grow at 37° C. overnight in the GP broth under an aerobic condition. Culture mixtures of these Candida species (cell density: 5×10^5) were incubated at 37° C. for 9 hours under a condition of 10% CO2 together with various final concentrations (0.1 mg/mL, 1.0 mg/mL) of HA having a weight average molecular weight of 2,000 kDa.
(§3) After completion of the incubation, in order to evaluate the degree of growth of each Candida species, the culture medium was thoroughly mixed, and its absorbance at a wavelength of 660 nm was measured. Hereinafter, absorbance of the sample incubated in the presence of HA is referred to as “ODtest”. As a control, the absorbance at a wavelength of 660 nm was measured using a sample of each Candida species incubated in the same manner in the absence of HA. Hereinafter, absorbance of this control is referred to as “ODcontrol”.
(§4) Growth inhibition ratio (%) was calculated from the value of “ODtest” and the value of “ODcontrol” of its corresponding Candida species based on the following formula. Growth inhibition ratio (%)=(1−ODtest/ODcontrol)×100 (1-5-2) Quantitative Plate Count […]

Candida albicans [3] = experiment: Living body staining of Candida species (FDA/PI); assay type: cell-based; conditions: conclusion from living body staining
Description: Co-culturing of an epithelial cell with a Candida species (effector:target ratio (to be referred to as “E:T” hereinafter) is 20:1, 40:1 or 80:1) was carried out in 100 μl of a medium using a 96 well plate (manufactured by Costar). After 9 hours of incubation, the co-culture mixture was recovered and washed twice. Fluorescein diacetate (which stain living cells, to be referred to as “FDA” hereinafter) (50 μg/mL) and propidium iodide (which stain dead cells, to be referred to as “PI” hereinafter)(1 μg/mL) (both manufactured by Sigma) (Adv. Biochem. Eng. Biotechnol., 62, p. 33-73 (1998), Anal. Chem., 37, p. 1219-1221 (1965)) were simultaneously added to the pellet of cells and incubated at room temperature for 20 minutes in the dark. In this connection, optimum concentrations of the respective pigments were determined by a preliminary test.
After the incubation, the co-culture mixture was washed with PBS and then with PBS containing 20% FCS, respectively, and then again washed with PBS. The pellet was resuspended in 100 μl, of PBS, and a 5 μL thereof was put on a slide glass and observed under a fluorescent phase contrast microscope (DP-70 manufactured by Olympus Corporation). Growth inhibition of Candida species by the epithelial cell was confirmed by 9 hours of a growth inhibition assay. […]

Candida albicans [4] = experiment: Analysis of the activity of inhibiting Candida growth of HA (absorbance at 660 nm); assay type: cell-based; conditions: Candida albicans 5×10^5 cells/mL, 9 hours with HA of various concentration (0.1, 1.0 mg/mL) and weight average molecular weight; FIG. 3
Description: Co-culture of HA and Candida was carried out in 100 μl of a medium using a 96 well plate (manufactured by Iwaki). Candida albicans was prepared by growing it at 37° C. overnight in the GP broth under an aerobic condition. The Candida albicans culture mixture was incubated at 37° C. for 9 hours under a condition of 10% CO2 in the presence of various final concentrations (0.1 mg/mL, 1.0 mg/mL) of HA having various sizes (tetradecasaccharide, weight average molecular weight 60 kDa, 250 kDa, 800 kDa or 2,000 kDa).
as §3, §4

| Substance | influence upon the life or death of the cells (MTT) (COS-7) | influence upon the life or death of the cells (MTT) (KB cells) | activity of inhibiting Candida growth of the COS-7 cell after hyaluronidase treatment (Candida albicans [1]) | activity of inhibiting growth for other Candida species (growth inhibition ratio) [2] | nature of the activity of inhibiting Candida growth (bactericidal or bacteriostatic) (Candida albicans [3]) | activity of inhibiting the Candida albicans growth (growth inhibition ratio) (Candida albicans [4]) |
| --- | --- | --- | --- | --- | --- | --- |
| hyaluronidase | does not exert influence upon the life or death of the cells | does not exert influence upon the life or death of the cells | reduced | – | – | – |
| hyaluronic acid [HA] | – | – | – | exerts its activity of inhibiting growth | not bactericidal but rather bacteriostatic | has activity of inhibiting the Candida albicans growth |
